Data on six compounds can be found in US10100097B2, “GIP-GLP-1 dual agonist compounds and methods” (Zealand Pharma A/S, priority 2012, dated 2018).

The nature of one series: in vivo. To be noted: C57BL/6J, mouse, plasma, sc, 200 nmol/kg.
The next series concerns Male C57BL/6J mice. Nature of the series: IPGTT (Intraperitoneal Glucose Tolerance Test) in mice. Format: in vivo. To be noted: glucose 2 g/kg i.p., peptides s.c., all time points, p<0.05 vs. vehicle. The procedure: IPGTT (Intraperitoneal Glucose Tolerance Test) in Mice
Male C57BL/6J mice (Charles River, Germany) were maintained on normal chow (Altromin 1324, Brogaarden A/S, Gentofte, Denmark) and domestic quality water with added citric acid to pH˜3.6. The animals were housed pair-wise in a light-, temperature-, and humidity-controlled room (12:12 h light-dark cycle, with lights on at 06.00-18.00 hr; 20-22° C.; 50-80% relative humidity). Mice were fasted for 5 hr before the IPGTT. Peptides and vehicle were administered subcutaneously before the intraperitoneal injection of glucose (t=0 min; 2 g/kg; 5 ml/kg). Tail vein blood was sampled at time t=0 (before glucose administration), 15, 30, 45, 60, 90, and 120 min for measurements of blood glucose.

The target in a further series is T1, human GLP-1 R (Homo sapiens, UniProt P43220).
T1 construct: expressed in transfected cells
Nature of the series: Human GLP-1 receptor (GLP-1 R) activity assay, cAMP induction (AlphaScreen cAMP kit). It is filed as cell-based. The conditions noted are these: HEK293 cells expressing the human GLP-1 R, 15 min at 37° C., average values of multiple determinations, read-out: GLP1 R (EC50 in nM). The gist of the method:
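Stable HEK293 clones expressing human GIP R or GLP-1 R, grown 1 day, washed in Tyrode's buffer (10 mM HEPES, pH 7.4), then stimulated with peptide. Cells lysed and cAMP quantified by AlphaScreen competition with biotinylated cAMP, 1 h dark incubation at room temperature.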
In general terms: In Alpha technology, singlet oxygen from a donor bead excites a nearby acceptor bead.

For a further series, the target named is T2, human GIP R (Homo sapiens, UniProt P48546).
T2 construct: expressed in transfected cells
T2 sequence (P48546 22-466): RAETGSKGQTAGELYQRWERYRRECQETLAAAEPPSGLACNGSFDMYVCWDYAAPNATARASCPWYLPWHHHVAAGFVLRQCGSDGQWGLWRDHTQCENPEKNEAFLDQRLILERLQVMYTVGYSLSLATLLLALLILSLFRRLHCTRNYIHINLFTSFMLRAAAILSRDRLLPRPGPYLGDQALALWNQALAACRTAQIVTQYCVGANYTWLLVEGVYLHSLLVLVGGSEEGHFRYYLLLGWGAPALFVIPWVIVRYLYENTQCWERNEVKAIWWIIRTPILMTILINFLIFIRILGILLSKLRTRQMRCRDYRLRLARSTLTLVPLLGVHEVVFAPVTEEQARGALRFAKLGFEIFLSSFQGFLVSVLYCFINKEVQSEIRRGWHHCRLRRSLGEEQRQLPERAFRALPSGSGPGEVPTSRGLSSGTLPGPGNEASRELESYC
Nature of the series: Human GIP receptor (GIP R) activity assay, cAMP induction (AlphaScreen cAMP kit). Format: cell-based. The conditions noted are these: HEK293 cells expressing the human GIP R; cAMP induction, 15 min at 37° C.; average values of multiple determinations; read-out: GIP R (EC50 in nM). The procedure:
Human GIP Receptor (GIP R) and GLP-1 Receptor (GLP-1 R) Activity Assay
In vitro effects of peptide conjugates of the invention were assessed by measuring the induction of cAMP following stimulation of the respective receptor by GIP, GLP1 or analogues of these, as outlined in the invention, using the AlphaSceen® cAMP kit from Perkin-Elmer according to instructions. Briefly. HEK293 cells expressing the human GIP R or GLP-1 R (stable cell lines generated through transfection of the cDNA for human GIP R or GLP-1 and selection of stable clones) were seeded at 30,000 cells/well in 96-well microtiter plates coated with 0.01% poly-L-lysine, and grown for 1 day in culture in 200 μl growth medium (DMEM, 10% FCS, Penicillin (100 IU/ml), Streptomycin (100 μg/ml)). On the day of analysis, growth medium was removed and the cells were washed once with […] Tyrode's buffer (Tyrode's Salts (9.6 g/1), 10 mM HEPES, pH 7.4). […] The Assay buffer was removed and cells are lysed in 80 μl Lysis buffer (0.1% w/v BSA, 5 mM HEPES, 0.3% v/v Tween-20) per well. From each well 10 μl lysed cells was transferred to a 384-well plate and mixed with 15 μl bead-mix (1 Unit/15 μl anti-cAMP Acceptor Beads, 1 Unit/15 μl Donor Beads, and 1 Unit/15 μl Biotinylated cAMP in Assay Buffer). The plates were mixed and incubated in the dark for an hour at room temperature before measuring using an Envision™ plate reader (Perkin-Elmer).

Numbered stars: 1 amine (or outer) side, 2 acyl side, 3 side chain; on linkers, the order of the positions; unused ones are H or OH. Square brackets hold non-standard residues; d marks the D form. Side chains are listed from the residue outwards. Peptide text beside a SMILES is read from it. * marks the point of attachment. γGlu = O=C(O)[C@H](CCC(=O)[*:2])N[*:1]; Palmitoyl = CCCCCCCCCCCCCCCC(=O)*; Aib = CC(C)(N)C(=O)O

T1 sequence (P43220 24-463): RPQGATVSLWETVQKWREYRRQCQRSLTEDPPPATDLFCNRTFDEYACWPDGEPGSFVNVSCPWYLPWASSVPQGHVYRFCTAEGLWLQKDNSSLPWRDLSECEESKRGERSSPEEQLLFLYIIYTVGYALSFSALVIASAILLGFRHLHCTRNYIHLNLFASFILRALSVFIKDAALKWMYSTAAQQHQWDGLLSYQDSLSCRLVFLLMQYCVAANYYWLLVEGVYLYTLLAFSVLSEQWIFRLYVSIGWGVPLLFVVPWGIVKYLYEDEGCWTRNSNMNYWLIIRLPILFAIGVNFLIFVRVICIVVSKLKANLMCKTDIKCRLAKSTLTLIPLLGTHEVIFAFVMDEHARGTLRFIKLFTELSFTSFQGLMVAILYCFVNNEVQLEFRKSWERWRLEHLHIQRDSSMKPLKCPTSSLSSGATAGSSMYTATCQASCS
Experimental for in vivo: C57BL/6J mice were given a single subcutaneous dose of 200 nmol/kg body weight of each peptide to be tested. Blood samples were drawn 0.5, 2, 4, 6, 8, 16, 24 and 36 hours post-dose by sublingual bleeding. At each time point, samples from two mice were taken, i.e. 16 mice per compound. The mice were euthanized immediately after blood sampling by cervical dislocation. Plasma samples were analyzed after solid phase extraction (SPE) by liquid chromatography mass spectrometry (LC-MS/MS).

The term half-life denotes the time in which the quantity being followed falls by half. Low readings indicate rapid decline, high ones slow decline. As usually defined, the EC50 is the midpoint of the concentration-response curve. As for `CCCCCCCCCCCCCCCC(=O)N[C@@H](CCC(=O)NCCCC[C@H](NC(=O)[C@H](CCCCN)NC(=O)[C@H](CC(=O)O)NC(=O)[C@H](CC(C)C)NC(=O)C(C)(C)NC(=O)[C@@H](NC(=O)[C@H](CO)NC(=O)[C@H](Cc1ccc(O)cc1)NC(=O)[C@H](CC(=O)O)NC(=O)[C@H](CO)NC(=O)[C@@H](NC(=O)[C@H](Cc1ccccc1)NC(=O)[C@@H](NC(=O)CNC(=O)[C@H](CCC(=O)O)NC(=O)C(C)(C)NC(=O)[C@@H](N)Cc1ccc(O)cc1)[C@@H](C)O)[C@@H](C)O)[C@@H](C)CC)C(=O)N[C@@H](C)C(=O)N[C@@H](CCC(N)=O)C(=O)N[C@@H](CCCNC(=N)N)C(=O)N[C@@H](C)C(=O)N[C@@H](Cc1ccccc1)C(=O)N[C@H](C(=O)N[C@@H](CCC(=O)O)C(=O)N[C@@H](Cc1c[nH]c2ccccc12)C(=O)N[C@@H](CC(C)C)C(=O)N[C@@H](CC(C)C)C(=O)N[C@@H](C)C(=O)N[C@@H](CCC(N)=O)C(=O)NCC(=O)N1CCC[C@H]1C(=O)N[C@@H](CO)C(=O)N[C@@H](CO)C(=O)NCC(=O)N[C@@H](C)C(=O)N1CCC[C@H]1C(=O)N1CCC[C@H]1C(=O)N1CCC[C@H]1C(=O)N[C@@H](CO)C(N)=O)C(C)C)C(=O)O` [Compound 32] (H-Y[Aib]EGTFTSDYSI[Aib]LDKK([γGlu-Palmitoyl])AQRAFVEWLLAQGPSSGAPPPS-NH2), the half-life in “in vivo” is 3.4 h. For the same compound, in the series with Male C57BL/6J mice, the “Effect on glucose tolerance as compared to vehicle” value was “significantly improved glucose tolerance”. Also, the EC50 on human GLP-1 R turned out to be 0.018 nM.

Regarding `CC[C@H](C)[C@H](NC(=O)[C@H](CCCCN)NC(=O)[C@H](CC(=O)O)NC(=O)[C@H](CC(C)C)NC(=O)[C@H](C)NC(=O)[C@@H](NC(=O)[C@H](CO)NC(=O)[C@H](Cc1ccc(O)cc1)NC(=O)[C@H](CC(=O)O)NC(=O)[C@H](CO)NC(=O)[C@@H](NC(=O)[C@H](Cc1ccccc1)NC(=O)[C@@H](NC(=O)CNC(=O)[C@H](CCC(=O)O)NC(=O)C(C)(C)NC(=O)[C@@H](N)Cc1ccc(O)cc1)[C@@H](C)O)[C@@H](C)O)[C@@H](C)CC)C(=O)N[C@@H](C)C(=O)N[C@@H](CCC(N)=O)C(=O)N[C@@H](CCCNC(=N)N)C(=O)N[C@@H](C)C(=O)N[C@@H](Cc1ccccc1)C(=O)N[C@H](C(=O)N[C@@H](CC(N)=O)C(=O)N[C@@H](Cc1c[nH]c2ccccc12)C(=O)N[C@@H](CC(C)C)C(=O)N[C@H](C(=O)N[C@@H](C)C(=O)NC(C)(C)C(=O)N[C@@H](CCCCN)C(N)=O)C(C)C)C(C)C` [Compound 3] (H-Y[Aib]EGTFTSDYSIALDKIAQRAFVNWLVA[Aib]K-NH2), the EC50 on human GLP-1 R is 0.022 nM; at human GIP R, 0.015 nM.

Regarding `CC[C@H](C)[C@H](NC(=O)[C@H](CO)NC(=O)[C@H](Cc1ccc(O)cc1)NC(=O)[C@H](CC(=O)O)NC(=O)[C@H](CO)NC(=O)[C@@H](NC(=O)[C@H](Cc1ccccc1)NC(=O)[C@@H](NC(=O)CNC(=O)[C@H](CCC(=O)O)NC(=O)C(C)(C)NC(=O)[C@@H](N)Cc1ccc(O)cc1)[C@@H](C)O)[C@@H](C)O)C(=O)N[C@@H](Cc1ccc(O)cc1)C(=O)N[C@@H](CC(C)C)C(=O)N[C@@H](CC(=O)O)C(=O)N[C@@H](CO)C(=O)N[C@@H](CCCCN)C(=O)N[C@@H](C)C(=O)N[C@@H](CCC(N)=O)C(=O)N[C@@H](CCCNC(=N)N)C(=O)N[C@@H](C)C(=O)N[C@@H](Cc1ccccc1)C(=O)N[C@H](C(=O)N[C@@H](CC(N)=O)C(=O)N[C@@H](Cc1c[nH]c2ccccc12)C(=O)N[C@@H](CC(C)C)C(=O)N[C@@H](CC(C)C)C(=O)N[C@@H](C)C(=O)NC(C)(C)C(=O)N[C@@H](CCCCN)C(N)=O)C(C)C` [Compound 16] (H-Y[Aib]EGTFTSDYSIYLDSKAQRAFVNWLLA[Aib]K-NH2), the half-maximal effective concentration (EC50) on human GLP-1 R was found to be 0.012 nM; at human GIP R, 0.053 nM.

As to `CC[C@H](C)[C@H](NC(=O)[C@H](CO)NC(=O)[C@H](Cc1ccc(O)cc1)NC(=O)[C@H](CC(=O)O)NC(=O)[C@H](CO)NC(=O)[C@@H](NC(=O)[C@H](Cc1ccccc1)NC(=O)[C@@H](NC(=O)CNC(=O)[C@H](CCC(=O)O)NC(=O)C(C)(C)NC(=O)[C@@H](N)Cc1ccc(O)cc1)[C@@H](C)O)[C@@H](C)O)C(=O)N[C@@H](Cc1ccc(O)cc1)C(=O)N[C@@H](CC(C)C)C(=O)N[C@@H](CC(=O)O)C(=O)N[C@@H](CCCCN)C(=O)N[C@@H](CCCCN)C(=O)N[C@@H](C)C(=O)N[C@@H](C)C(=O)N[C@@H](Cc1c[nH]cn1)C(=O)N[C@@H](CC(=O)O)C(=O)N[C@@H](Cc1ccccc1)C(=O)N[C@H](C(=O)N[C@@H](CCC(=O)O)C(=O)N[C@@H](Cc1c[nH]c2ccccc12)C(=O)N[C@@H](CC(C)C)C(=O)N[C@@H](CC(C)C)C(=O)N[C@@H](CO)C(=O)N[C@@H](C)C(N)=O)C(C)C` [Compound 42] (H-Y[Aib]EGTFTSDYSIYLDKKAAHDFVEWLLSA-NH2), the EC50 on human GLP-1 R stood at 0.012 nM; on human GIP R, 0.007 nM.

Regarding `CC[C@H](C)[C@H](NC(=O)[C@H](CO)NC(=O)[C@H](Cc1ccc(O)cc1)NC(=O)[C@H](CC(=O)O)NC(=O)[C@H](CO)NC(=O)[C@@H](NC(=O)[C@H](Cc1ccccc1)NC(=O)[C@@H](NC(=O)CNC(=O)[C@H](CCC(=O)O)NC(=O)C(C)(C)NC(=O)[C@@H](N)Cc1ccc(O)cc1)[C@@H](C)O)[C@@H](C)O)C(=O)N[C@@H](Cc1ccc(O)cc1)C(=O)N[C@@H](CC(C)C)C(=O)N[C@@H](CCC(=O)O)C(=O)N[C@@H](CCCCN)C(=O)N[C@@H](CCCCN)C(=O)N[C@@H](C)C(=O)N[C@@H](C)C(=O)N[C@@H](Cc1c[nH]cn1)C(=O)N[C@@H](CC(=O)O)C(=O)N[C@@H](Cc1ccccc1)C(=O)N[C@H](C(=O)N[C@@H](CCC(=O)O)C(=O)N[C@@H](Cc1c[nH]c2ccccc12)C(=O)N[C@@H](CC(C)C)C(=O)N[C@@H](CC(C)C)C(=O)N[C@@H](CO)C(=O)N[C@@H](C)C(N)=O)C(C)C` [Compound 38] (H-Y[Aib]EGTFTSDYSIYLEKKAAHDFVEWLLSA-NH2), the EC50 on human GLP-1 R came to 0.018 nM; on human GIP R, 0.007 nM.

On to `CC[C@H](C)[C@H](NC(=O)[C@H](CO)NC(=O)[C@H](Cc1ccc(O)cc1)NC(=O)[C@H](CC(=O)O)NC(=O)[C@H](CO)NC(=O)[C@@H](NC(=O)[C@H](Cc1ccccc1)NC(=O)[C@@H](NC(=O)CNC(=O)[C@H](CCC(=O)O)NC(=O)C(C)(C)NC(=O)[C@@H](N)Cc1ccc(O)cc1)[C@@H](C)O)[C@@H](C)O)C(=O)N[C@@H](Cc1ccc(O)cc1)C(=O)N[C@@H](CO)C(=O)N[C@@H](CC(=O)O)C(=O)N[C@@H](CCCCN)C(=O)N[C@@H](CCCCN)C(=O)N[C@@H](C)C(=O)N[C@@H](CCC(N)=O)C(=O)N[C@@H](CCCNC(=N)N)C(=O)N[C@@H](C)C(=O)N[C@@H](Cc1ccccc1)C(=O)N[C@H](C(=O)N[C@@H](CC(N)=O)C(=O)N[C@@H](Cc1c[nH]c2ccccc12)C(=O)N[C@@H](CC(C)C)C(=O)N[C@@H](CC(C)C)C(=O)N[C@@H](C)C(=O)NC(C)(C)C(=O)N[C@@H](CCCCN)C(N)=O)C(C)C` [Compound 13] (H-Y[Aib]EGTFTSDYSIYSDKKAQRAFVNWLLA[Aib]K-NH2), for which the EC50 at human GIP R came out at 0.14 nM.
